Results on 24 molecules are retold here after paper PMC9542353, “Design and synthesis of some new benzoylthioureido phenyl derivatives targeting carbonic anhydrase enzymes” (Journal of Enzyme Inhibition and Medicinal Chemistry, 2022).

Series [1] deals with hCA XII (Homo sapiens, UniProt O43570). Kind of series: stopped flow CO2 hydrase assay, hCA XII.
Excerpt: (§1) A stopped flow CO2 hydrase assay was adopted using an SX.18 MV-R Applied Photophysics (Oxford, UK) stopped-flow instrument to assess the inhibition against the various CA isozymes[33].
Series [2] deals with hCA I (Homo sapiens, UniProt P00915). Kind of series: stopped flow CO2 hydrase assay, hCA I. Particulars: for inhibitory activity against hCA I (in words): abstract statement.
Excerpt: as §1
In series [3] the target is hCA II (Homo sapiens, UniProt P00918). Kind of series: stopped flow CO2 hydrase assay, hCA II.
Excerpt: as §1
For series [4], the target named is hCA IX (Homo sapiens, UniProt Q16790). Kind of series: stopped flow CO2 hydrase assay, hCA IX.
Excerpt: as §1
Series [5] relates to hCAII. To be noted: read-out: IC50 against hCAII; cited from earlier work.

Where only a bound is given, the exact number is not on record here.

hCA XII, sequence (O43570 25-354): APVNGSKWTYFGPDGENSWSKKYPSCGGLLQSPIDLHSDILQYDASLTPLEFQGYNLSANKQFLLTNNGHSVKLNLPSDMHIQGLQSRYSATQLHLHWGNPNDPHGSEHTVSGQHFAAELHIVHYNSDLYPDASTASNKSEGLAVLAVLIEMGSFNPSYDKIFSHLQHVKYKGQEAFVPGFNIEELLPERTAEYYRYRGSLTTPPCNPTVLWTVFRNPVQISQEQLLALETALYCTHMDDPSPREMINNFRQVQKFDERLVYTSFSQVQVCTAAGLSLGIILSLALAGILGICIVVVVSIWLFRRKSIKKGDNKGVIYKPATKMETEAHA
hCA I, sequence (P00915 whole entry): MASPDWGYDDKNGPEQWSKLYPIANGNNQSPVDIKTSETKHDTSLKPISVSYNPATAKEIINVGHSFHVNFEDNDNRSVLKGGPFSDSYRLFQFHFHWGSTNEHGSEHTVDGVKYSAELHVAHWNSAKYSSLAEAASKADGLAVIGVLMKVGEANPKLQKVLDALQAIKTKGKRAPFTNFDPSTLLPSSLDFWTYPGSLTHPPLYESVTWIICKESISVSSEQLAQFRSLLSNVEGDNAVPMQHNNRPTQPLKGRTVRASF

On to `O=C(O)c1ccc(NC(=S)NC(=O)c2ccc(Br)cc2)cc1` [Compound 5d, 4-[3-(4-Bromobenzoyl)thioureido]benzoic acid], for which the melting point was 206 to 215 °C. This molecule also yielded an inhibition constant (Ki) in series [1] above 100 µM. For the same molecule, in series [2], the Ki was determined as 5560 nM and the “inhibitory activity against hCA I (in words)” value (“inhibitory activity” for short) was “significant inhibitory activity”. In series [3], this molecule gave a Ki above 100000 nM. In addition, the Ki in series [4] is above 100000 nM.

Molecule `NS(=O)(=O)c1ccc(NC(=S)NC(=O)c2ccc(Cl)c(Cl)c2)cc1` [Compound 4c, 3,4-Dichloro-N-[(4-sulphamoylphenyl)carbamothioyl]benzamide] gave a melting point of 206 to 208 °C. This molecule also registered a Ki in series [1] of 0.0881 µM. In series [2], the Ki stood at 40.4 nM and the “inhibitory activity” value is “significant inhibitory activity”. The molecule also displayed a Ki in series [3] of 90 nM. Moreover, the Ki in series [4] is above 100000 nM.

Molecule `NS(=O)(=O)c1ccc(NC(=S)NC(=O)c2ccc(Cl)cc2)cc1` [Compound 4b, 4-Chloro-N-[(4-sulfamoylphenyl)carbamothioyl]benzamide] yielded a melting point of 226 to 234 °C. Further, the Ki in series [1] is above 100 µM. Also, in series [2], the affinity, expressed as Ki, was 58.5 nM and the “inhibitory activity” value is given as “significant inhibitory activity”. In addition, in series [3], the inhibitory constant (Ki) turned out to be 58.1 nM. Further, the Ki in series [4] was 115 nM.

Take `CCOC(=O)c1ccc(NC(=S)NC(=O)c2ccc(NC(=O)C(C)C)cc2OC)cc1` [Compound 14b, Ethyl-4-[3-(4-isobutyramido-2-methoxybenzoyl)thioureido]benzoate]: the melting point is 245 to 247 °C. The molecule further showed an inhibition constant (Ki) in series [1] above 100 µM. The same molecule came in with an inhibitory constant (Ki) in series [2] above 100000 nM. Also, in series [3], the Ki is above 100000 nM. Besides, the affinity in series [4] corresponds to a Ki of 1500 nM.

In the case of `CCOC(=O)c1ccc(NC(=S)NC(=O)c2ccc(NC(=O)c3ccc(C)cc3)cc2OC)cc1` [Compound 14c, Ethyl-4-[3-(2-methoxy-4-(4-methylbenzamido)benzoyl)thioureido]benzoate], the melting point lay within 257 to 259 °C. Also, the Ki in series [1] is above 100 µM. Also, the Ki in series [2] is above 100000 nM. For the same molecule, the inhibition constant Ki in series [3] was 2020 nM. The Ki in series [4] came out at 1370 nM.

Turning to `O=C(O)c1ccc(NC(=S)NC(=O)c2ccc(Cl)c(Cl)c2)cc1` [Compound 5c, 4-[3-(3,4-Dichlorobenzoyl)thioureido]benzoic acid], the melting point was 216 to 218 °C. The Ki in series [1] is above 100 µM. This molecule also showed a Ki in series [2] above 100000 nM. In series [3], this molecule gave a Ki of 6000 nM. The molecule also returned a Ki in series [4] of 1740 nM.

`COc1cc(NC(=O)C(C)C)ccc1C(=O)NC(=S)Nc1ccc(S(N)(=O)=O)cc1` [Compound 12b, 4-Isobutyramido-2-methoxy-N-[(4-sulfamoylphenyl)carbamothioyl] benzamide]: the melting point was in the range of 248 to 250 °C. The same molecule registered an inhibitory constant (Ki) in series [1] above 100 µM. In addition, the Ki in series [2] is above 100000 nM. For the same molecule, the Ki in series [3] is 2770 nM. In series [4], this molecule returned a Ki of 1780 nM.

`O=C(NC(=S)Nc1ccccc1)c1ccc(C(F)(F)F)cc1` [III]: the 50% inhibitory concentration (IC50) in series [5] was 2480 nM.

Take `CCOC(=O)c1ccc(NC(=S)NC(=O)c2ccc(Cl)c(Cl)c2)cc1` [Compound 6c, Ethyl 4-[3-(3,4-dichlorobenzoyl)thioureido]benzoate]: the melting point lay in the range of 216 to 218 °C. The same molecule displayed a Ki in series [1] above 100 µM. Also, the Ki in series [2] worked out at 809 nM. In addition, the Ki in series [3] was above 100000 nM. In series [4], this molecule came in with a Ki of 239 nM.

Molecule `COc1cc(NC(=O)C(C)C)ccc1C(=O)NC(=S)Nc1ccc(C(=O)O)cc1` [Compound 13b] displayed a melting point of 256 to 258 °C. Also, the inhibition constant (Ki) in series [1] was above 100 µM. The same molecule gave a Ki in series [2] above 100000 nM. The Ki in series [3] was determined as 193 nM. This molecule also came in with a Ki in series [4] of 289 nM.

In the case of `COc1cc(NC(C)=O)ccc1C(=O)NC(=S)Nc1ccc(S(N)(=O)=O)cc1` [Compound 12a, 4-Acetamido-2-methoxy-N-[(4-sulfamoylphenyl)carbamothioyl]benzamide], the melting point fell in the range of 225 to 227 °C. In series [1], this molecule yielded a Ki of 0.083 µM. In series [2], the Ki is 67.6 nM and the “inhibitory activity” value is “significant inhibitory activity”. Further, affinity in series [3] was put at a Ki of 15.5 nM. In addition, the Ki in series [4] was determined as 32.2 nM.

`O=C(O)c1ccc(NC(=S)NC(=O)c2ccc(Cl)cc2)cc1` [Compound 5b, 4-[3-(4-Chlorobenzoyl)thioureido]benzoic acid] gave a melting point of 232 to 240 °C. For the same molecule, the inhibition constant (Ki) in series [1] was above 100 µM. In series [2], this molecule came in with a Ki of 8800 nM. In series [3], this molecule displayed an inhibitory constant (Ki) of 5540 nM. For the same molecule, the Ki in series [4] was above 100000 nM.

The molecule `COc1cc(NC(=O)c2ccc(C)cc2)ccc1C(=O)NC(=S)Nc1ccc(C(=O)O)cc1` [Compound 13c, 4-(3-(2-Methoxy-4-(4-methylbenzamido)benzoyl)thioureido]benzoic acid] registered a melting point of 281 to 283 °C. Besides, the Ki in series [1] is above 100 µM. The molecule further came in with a Ki in series [2] above 100000 nM. This molecule came in with an inhibition constant Ki in series [3] of 504 nM. Also, the Ki in series [4] worked out at 802 nM.

On to `COc1ccc(NC(=S)NC(=O)c2ccc(C(F)(F)F)cc2)cc1OC` [II], for which the IC50 in series [5] is 1900 nM.

With `CC(=O)NC(=S)Nc1ccc(S(N)(=O)=O)cc1` [IV], the concentration for half-maximal inhibition (IC50) in series [5] is 2140 nM.

For the molecule `CCOC(=O)c1ccc(NC(=S)NC(=O)c2ccc(Br)cc2)cc1` [Compound 6d, Ethyl-4-[3-(4-bromobenzoyl)thioureido]benzoate], the melting point was 218 to 220 °C. This molecule also came in with a Ki in series [1] above 100 µM. This molecule also came in with a Ki in series [2] of 85.4 nM. In addition, in series [3], affinity was put at a Ki of 31 nM. Moreover, the Ki in series [4] is above 100000 nM.

As to `NS(=O)(=O)c1ccc(NC(=S)NC(=O)c2ccccc2)cc1` [Compound 4a, N-[(4-Sulphamoylphenyl)carbamothioyl]benzamide], the figures for the Ki in series [1] and in series [4] were 0.0574 µM and 106 nM, respectively.

`NS(=O)(=O)c1ccc(NC(=S)NC(=O)c2ccc(Br)cc2)cc1` [Compound 4d, 4-Bromo-N-[(4-sulfamoylphenyl)carbamothioyl]benzamide] showed a melting point of 215 to 217 °C. For the same molecule, the affinity in series [1] corresponds to a Ki of 0.082 µM. In addition, in series [2], the Ki is 65 nM and the “inhibitory activity” value was “significant inhibitory activity”. Further, the Ki in series [3] is 67 nM. In series [4], this molecule showed a Ki above 100000 nM.

Consider `CCOC(=O)c1ccc(NC(=S)NC(=O)c2ccc(Cl)cc2)cc1` [Compound 6b, Ethyl 4-[3-(4-chlorobenzoyl)thioureido]benzoate], for which the melting point lay in the range of 219 to 221 °C. In series [1], this molecule returned a Ki above 100 µM. In series [2], this molecule showed an inhibitory constant (Ki) above 100000 nM. Besides, the Ki in series [3] is above 100000 nM. The molecule also registered a Ki in series [4] of 1400 nM.

On to `O=C(O)c1ccc(NC(=S)NC(=O)c2ccccc2)cc1` [Compound 5a, 4-(3-Benzoylthioureido)benzoic acid], for which the melting point lay within 212 to 224 °C. Also, in series [1], the Ki is above 100 µM. In series [2], this molecule registered an inhibitory constant (Ki) of 1500 nM. This molecule displayed a Ki in series [3] of 465 nM. Moreover, the affinity in series [4], expressed as Ki, was 2930 nM.

Turning to `CCOC(=O)c1ccc(NC(=S)NC(=O)c2ccccc2)cc1` [Compound 6a, Ethyl-4-(3-benzoylthioureido)benzoate], the melting point was 223 to 235 °C. This molecule showed a Ki in series [1] above 100 µM. Moreover, in series [2], the inhibition constant (Ki) was above 100000 nM. The inhibition constant (Ki) in series [3] was above 100000 nM. In addition, the inhibitory constant (Ki) in series [4] amounted to 1740 nM.

Regarding `COc1cc(NC(=O)c2ccc(C)cc2)ccc1C(=O)NC(=S)Nc1ccc(S(N)(=O)=O)cc1` [Compound 12c, 2-Methoxy-4-(4-methylbenzamido)-N-[(4-sulfamoylphenyl)carbamothioyl] benzamide], the melting point was 250 to 252 °C. This molecule came in with a Ki in series [1] of 0.226 µM. Further, in series [2], the inhibition constant (Ki) stood at 91 nM and the “inhibitory activity” value is listed as “significant inhibitory activity”. This molecule returned a Ki in series [3] of 94.2 nM. Besides, in series [4], the Ki amounted to 144 nM.

Take `COc1cc(NC(C)=O)ccc1C(=O)NC(=S)Nc1ccc(C(=O)O)cc1` [Compound 13a, 4-[3-(4-Acetamido-2-methoxybenzoyl)thioureido]benzoic acid]: the melting point fell in the range of 245 to 247 °C. The molecule further displayed a Ki in series [1] above 100 µM. Further, in series [2], the inhibitory constant (Ki) was determined as 1710 nM. In series [3], this molecule returned an inhibition constant Ki of 647 nM. The same molecule came in with a Ki in series [4] of 1090 nM.

In turn, `CCOC(=O)c1ccc(NC(=S)NC(=O)c2ccc(NC(C)=O)cc2OC)cc1` [Compound 14a, Ethyl-4-[3-(4-acetamido-2-methoxybenzoyl)thioureido]benzoate] had a melting point of 237 to 239 °C. Besides, the Ki in series [1] was above 100 µM. The molecule further showed a Ki in series [2] above 100000 nM. The Ki in series [3] is above 100000 nM. Further, the inhibition constant (Ki) in series [4] is 1150 nM.
